From PubChem BioAssay AID651770 (Broad Institute, 2012)
“And” between values parts separate entries of the source, which are not always exact repeats. Equal values may be shown once. Inconclusive results are not listed. The source made the active and inactive calls.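 The calls were made as follows: active = fitted dose curve reaches a 40% decrease at a concentration up to twice the top valid dose; inconclusive = flat curve showing 30 to 70% expression rise, or poor fit; inactive = the rest.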

Legend:
[1] = tested on: SK-MEL-5, TRPM1 mRNA qPCR (delta-delta-Ct), overnight; test: suppression of MITF target gene TRPM1 mRNA, dose response, orthogonal assay for MITF inhibitor project, cell-based, SK-MEL-5, RT-qPCR, dry powder samples (AID 651770)
[2] = as above; settings: SK-MEL-5, TRPM1 mRNA qPCR (delta-delta-Ct), overnight; at 35 µM (top of the series)

Compound	AC40 [1]	TRPM1 expression decrease [2]
C=CCNC1=C(Cl)C(=O)c2ccccc2C1=O	0.943 µM	–
CN1CCN(C2=C(Nc3ccc(F)cc3F)C(=O)c3ccccc3C2=O)CC1	1.15 µM	–
CCN1CCN(C2=C(NS(=O)(=O)c3ccc(Br)cc3)C(=O)c3ccccc3C2=O)CC1	4.93 µM	–
O=C1C=C(NS(=O)(=O)c2ccc(Br)cc2)C(=O)c2ccccc21	0.85 µM	–
O=C(NC1=C(Cl)C(=O)c2ccccc2C1=O)c1ccccc1	0.164 µM	–
COC1=C(NS(=O)(=O)c2cccs2)C(=O)c2ccccc2C1=O	4.39 µM	–
O=C1C(Nc2ccc(Cl)cc2)=C(N2CCCC2)C(=O)c2ccccc21	10.3 µM	–
NC1=C(NS(=O)(=O)c2ccc(Br)cc2)C(=O)c2ccccc2C1=O	4.09 µM	–
NC1=C(NS(=O)(=O)c2cccs2)C(=O)c2ccccc2C1=O	0.987 µM	–
O=C1C(Nc2ccccc2)=C(c2ccccc2)C(=O)c2ccccc21	8.18 µM	–
CC(C)N1CCN(C2=C(Nc3ccc(F)cc3F)C(=O)c3ccccc3C2=O)CC1	2.02 µM	–
NC1=C(NS(=O)(=O)c2ccccc2)C(=O)c2ccccc2C1=O	1.85 µM	–
COC1=C(NS(=O)(=O)c2ccccc2)C(=O)c2ccccc2C1=O	3.98 µM	–
NS(=O)(=O)c1ccc(NC2=CC(=O)c3ccccc3C2=O)cc1	0.163 µM	–
O=C1C(NS(=O)(=O)c2cccs2)=C(c2ccccc2)C(=O)c2ccccc21	1.68 µM	–
NC1=C(NC(=O)c2ccccc2)C(=O)c2ccccc2C1=O	0.722 µM	–
CN1CCN(C2=C(NS(=O)(=O)c3ccc(Br)s3)C(=O)c3ccccc3C2=O)CC1	1.13 µM	–
O=C1C=C(NS(=O)(=O)c2cccs2)C(=O)c2ccccc21	0.333 µM	–
O=C1C=C(Nc2ccccc2)C(=O)c2ccccc21	0.74 µM and 0.323 µM	–
CC(C)N1CCN(C2=C(Nc3ccc(F)cc3)C(=O)c3ccccc3C2=O)CC1	4.91 µM	–
CCN1CCN(C2=C(NC(=O)c3ccccc3)C(=O)c3ccccc3C2=O)CC1	1.16 µM	–
COc1ccc(NC2=C(N3CCCCC3)C(=O)c3ccccc3C2=O)cc1	–	78% (inactive)
COC1=C(NS(=O)(=O)c2ccc(Br)cc2)C(=O)c2ccccc2C1=O	4.44 µM	–
O=C1C=C(Nc2ccc([N+](=O)[O-])c(C(F)(F)F)c2)C(=O)c2ccccc21	0.302 µM	–
NC1=CC(=O)c2ccccc2C1=O	3.41 µM	–
O=C1C=C(NS(=O)(=O)c2ccccc2)C(=O)c2ccccc21	0.193 µM	–
CCN1CCN(C2=C(Nc3ccc(F)cc3F)C(=O)c3ccccc3C2=O)CC1	3.19 µM	–
NC1=C(NS(=O)(=O)c2ccc(Br)s2)C(=O)c2ccccc2C1=O	5.24 µM	–
COC1=C(Nc2ccccc2)C(=O)c2ccccc2C1=O	0.336 µM	–
